The values that follow come from ChEMBL document CHEMBL5370593, “Discovery and In Vitro Characterization of SPL028: Deuterated N,N-Dimethyltryptamine” (ACS Med Chem Lett, 2023).

In data set [1] the target is Amine oxidase [flavin-containing] A (Homo sapiens, UniProt P21397). The experiment in a line: Inhibition of human recombinant MAO-A expressed in insect cells assessed as inhibition of 4-hydroxyquinoline formation using kynuramine as substrate incubated for 75 mins by spectrophotometric analysis. On the set-up: species or system Insect cell.
Sequence of Amine oxidase [flavin-containing] A (P21397 whole entry): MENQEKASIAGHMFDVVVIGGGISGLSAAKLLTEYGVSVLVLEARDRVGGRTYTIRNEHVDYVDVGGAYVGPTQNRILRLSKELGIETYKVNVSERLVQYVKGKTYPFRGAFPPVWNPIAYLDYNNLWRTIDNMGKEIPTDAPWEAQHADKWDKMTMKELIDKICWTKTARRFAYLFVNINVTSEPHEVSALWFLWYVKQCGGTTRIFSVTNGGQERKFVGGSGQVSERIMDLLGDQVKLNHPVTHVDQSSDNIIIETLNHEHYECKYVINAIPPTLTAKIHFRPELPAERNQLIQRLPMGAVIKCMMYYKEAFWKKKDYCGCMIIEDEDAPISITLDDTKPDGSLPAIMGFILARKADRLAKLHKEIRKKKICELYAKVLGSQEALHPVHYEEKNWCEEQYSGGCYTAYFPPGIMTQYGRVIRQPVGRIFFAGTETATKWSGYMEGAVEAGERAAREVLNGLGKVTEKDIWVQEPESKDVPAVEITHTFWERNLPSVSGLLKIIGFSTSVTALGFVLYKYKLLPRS
Data set [2] has as its target T1, Alpha-1A adrenergic receptor (Homo sapiens, UniProt P35348).
T1 sequence (P35348 whole entry): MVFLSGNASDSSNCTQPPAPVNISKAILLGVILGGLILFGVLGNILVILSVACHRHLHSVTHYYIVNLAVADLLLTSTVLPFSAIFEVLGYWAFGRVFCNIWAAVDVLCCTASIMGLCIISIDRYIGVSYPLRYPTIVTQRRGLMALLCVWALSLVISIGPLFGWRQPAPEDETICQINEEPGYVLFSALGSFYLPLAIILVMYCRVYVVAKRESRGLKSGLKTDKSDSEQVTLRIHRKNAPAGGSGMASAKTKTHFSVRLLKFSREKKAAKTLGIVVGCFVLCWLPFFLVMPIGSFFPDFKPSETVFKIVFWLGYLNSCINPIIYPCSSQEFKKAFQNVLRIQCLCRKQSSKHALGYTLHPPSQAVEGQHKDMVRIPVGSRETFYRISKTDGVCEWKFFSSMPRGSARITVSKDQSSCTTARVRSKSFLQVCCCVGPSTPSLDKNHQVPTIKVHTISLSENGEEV
The experiment in a line: Displacement of [3H] prazosin from human recombinant adrenergic alpha-1a receptor expressed in […] cells assessed as inhibition constant incubated for 60 mins by spectrophotometric analysis. The data set is classed as cell-based. (In general: Displacement assays read how much labelled ligand stays bound in the presence of the test substance.)

The nature of data set [3]: Displacement of [3H] idazoxan from imidazoline receptor 2 (unknown origin) assessed as inhibition constant by spectrophotometric analysis. On the set-up: species or system Homo sapiens.
The target of data set [4] is 5-hydroxytryptamine receptor 5A (Homo sapiens, UniProt P47898). The experiment in a line: Displacement of [3H] LSD from human recombinant 5-HT5A receptor expressed in CHO-K1 cells assessed as inhibition constant incubated for 60 mins by spectrophotometric analysis. It counts as cell-based.
Sequence of 5-hydroxytryptamine receptor 5A (P47898 whole entry): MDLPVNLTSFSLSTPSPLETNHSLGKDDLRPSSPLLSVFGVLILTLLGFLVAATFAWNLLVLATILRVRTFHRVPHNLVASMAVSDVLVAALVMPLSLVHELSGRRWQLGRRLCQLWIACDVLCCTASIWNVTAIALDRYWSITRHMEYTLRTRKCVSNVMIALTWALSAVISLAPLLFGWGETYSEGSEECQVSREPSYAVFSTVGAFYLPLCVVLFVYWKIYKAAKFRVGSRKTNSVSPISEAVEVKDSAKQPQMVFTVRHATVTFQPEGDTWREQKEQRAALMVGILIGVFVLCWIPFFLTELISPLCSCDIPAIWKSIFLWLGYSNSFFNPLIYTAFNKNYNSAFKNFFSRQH
The target of data set [5] is T2, 5-hydroxytryptamine receptor 2A (Homo sapiens, UniProt P28223). The experiment in a line: Displacement of [3H] ketanserin from human recombinant 5-HT2A receptor expressed in CHO-K1 cells assessed as inhibition constant incubated for 60 mins by spectrophotometric analysis.
T2 sequence (P28223 whole entry): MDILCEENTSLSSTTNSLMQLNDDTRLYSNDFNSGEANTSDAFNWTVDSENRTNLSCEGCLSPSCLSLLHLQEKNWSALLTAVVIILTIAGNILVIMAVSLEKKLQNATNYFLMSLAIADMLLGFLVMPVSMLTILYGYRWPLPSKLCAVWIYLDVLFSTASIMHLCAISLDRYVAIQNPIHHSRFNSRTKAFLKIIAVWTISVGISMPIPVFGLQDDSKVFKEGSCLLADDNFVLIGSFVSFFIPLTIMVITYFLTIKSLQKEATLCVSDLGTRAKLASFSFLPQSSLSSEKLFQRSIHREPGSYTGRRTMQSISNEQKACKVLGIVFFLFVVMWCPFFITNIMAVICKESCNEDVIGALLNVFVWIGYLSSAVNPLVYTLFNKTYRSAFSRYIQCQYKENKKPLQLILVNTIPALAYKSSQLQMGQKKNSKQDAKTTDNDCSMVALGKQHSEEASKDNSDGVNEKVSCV
Data set [6] concerns the target T2, 5-hydroxytryptamine receptor 2A. The data set can be described thus: Displacement of [3H] ketanserin from human recombinant 5-HT2A receptor expressed in CHO-K1 cells incubated for 60 mins by spectrophotometric analysis.
For data set [7], the target named is T3, 5-hydroxytryptamine receptor 1B (Homo sapiens, UniProt P28222). The experiment in a line: Displacement of [3H] GR125743 from human recombinant 5-HT1B receptor expressed in […] cells incubated for 90 mins by spectrophotometric analysis. The data set is classed as cell-based.
T3 sequence (P28222 whole entry): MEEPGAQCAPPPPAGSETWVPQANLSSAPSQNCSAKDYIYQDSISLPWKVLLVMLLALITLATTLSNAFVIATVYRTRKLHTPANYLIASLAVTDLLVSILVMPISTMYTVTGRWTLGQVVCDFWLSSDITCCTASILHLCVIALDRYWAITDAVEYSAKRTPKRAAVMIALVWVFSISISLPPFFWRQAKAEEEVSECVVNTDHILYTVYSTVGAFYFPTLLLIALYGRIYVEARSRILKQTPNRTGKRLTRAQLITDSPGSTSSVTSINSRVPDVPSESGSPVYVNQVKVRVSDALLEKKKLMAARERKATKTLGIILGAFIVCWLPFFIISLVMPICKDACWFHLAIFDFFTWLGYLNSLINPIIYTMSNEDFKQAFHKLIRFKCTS
Data set [8] addresses T1, Alpha-1A adrenergic receptor. The experiment in a line: Displacement of [3H] prazosin from human recombinant adrenergic alpha-1a receptor expressed in […] cells incubated for 60 mins by spectrophotometric analysis. It counts as cell-based.
The target in data set [9] is T4, Alpha-1D adrenergic receptor (Homo sapiens, UniProt P25100).
T4 sequence (P25100 whole entry): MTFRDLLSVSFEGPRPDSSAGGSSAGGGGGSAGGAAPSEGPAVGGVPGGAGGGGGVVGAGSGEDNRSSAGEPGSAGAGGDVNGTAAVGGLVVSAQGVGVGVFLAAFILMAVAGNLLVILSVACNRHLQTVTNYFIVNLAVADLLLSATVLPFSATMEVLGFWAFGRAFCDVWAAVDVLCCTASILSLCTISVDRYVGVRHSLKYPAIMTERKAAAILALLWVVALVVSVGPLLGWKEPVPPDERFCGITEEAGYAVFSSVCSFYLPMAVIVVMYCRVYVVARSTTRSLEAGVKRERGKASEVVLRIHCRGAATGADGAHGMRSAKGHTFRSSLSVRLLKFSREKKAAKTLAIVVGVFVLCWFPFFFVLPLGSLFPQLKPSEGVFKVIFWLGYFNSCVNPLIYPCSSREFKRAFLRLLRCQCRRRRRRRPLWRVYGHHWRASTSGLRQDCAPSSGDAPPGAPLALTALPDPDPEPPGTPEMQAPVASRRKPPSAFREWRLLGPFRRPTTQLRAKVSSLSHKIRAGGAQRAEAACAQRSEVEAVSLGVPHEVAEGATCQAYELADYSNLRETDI
The experiment in a line: Displacement of [3H] prazosin from human recombinant adrenergic alpha-1d receptor expressed in HEK293 cells assessed as inhibition constant incubated for 60 mins by spectrophotometric analysis. It counts as cell-based.

The target of data set [10] is T4, Alpha-1D adrenergic receptor. The data set can be described thus: Displacement of [3H] prazosin from human recombinant adrenergic alpha-1d receptor expressed in HEK293 cells incubated for 60 mins by spectrophotometric analysis. The data set is classed as cell-based.
The target of data set [11] is 5-hydroxytryptamine receptor 7 (Homo sapiens, UniProt P34969). The data set can be described thus: Displacement of [3H] LSD from human recombinant 5-HT7 receptor expressed in CHO-K1 cells incubated for 120 mins by spectrophotometric analysis. The data set is classed as cell-based.
Sequence of 5-hydroxytryptamine receptor 7 (P34969 whole entry): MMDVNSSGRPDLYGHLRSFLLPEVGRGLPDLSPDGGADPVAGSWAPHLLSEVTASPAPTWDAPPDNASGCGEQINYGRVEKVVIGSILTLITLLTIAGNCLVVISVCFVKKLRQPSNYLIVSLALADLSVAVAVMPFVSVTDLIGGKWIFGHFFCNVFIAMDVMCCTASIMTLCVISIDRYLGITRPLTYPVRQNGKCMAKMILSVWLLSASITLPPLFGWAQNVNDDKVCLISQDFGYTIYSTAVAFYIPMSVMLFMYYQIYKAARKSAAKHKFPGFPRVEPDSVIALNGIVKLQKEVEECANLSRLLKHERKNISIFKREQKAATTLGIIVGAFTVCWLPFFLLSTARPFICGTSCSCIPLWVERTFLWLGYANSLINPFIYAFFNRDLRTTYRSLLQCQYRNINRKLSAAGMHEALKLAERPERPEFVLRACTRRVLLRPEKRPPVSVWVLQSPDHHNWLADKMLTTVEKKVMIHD
The target in data set [12] is T5, Alpha-2A adrenergic receptor (Homo sapiens, UniProt P08913).
T5 sequence (P08913 whole entry): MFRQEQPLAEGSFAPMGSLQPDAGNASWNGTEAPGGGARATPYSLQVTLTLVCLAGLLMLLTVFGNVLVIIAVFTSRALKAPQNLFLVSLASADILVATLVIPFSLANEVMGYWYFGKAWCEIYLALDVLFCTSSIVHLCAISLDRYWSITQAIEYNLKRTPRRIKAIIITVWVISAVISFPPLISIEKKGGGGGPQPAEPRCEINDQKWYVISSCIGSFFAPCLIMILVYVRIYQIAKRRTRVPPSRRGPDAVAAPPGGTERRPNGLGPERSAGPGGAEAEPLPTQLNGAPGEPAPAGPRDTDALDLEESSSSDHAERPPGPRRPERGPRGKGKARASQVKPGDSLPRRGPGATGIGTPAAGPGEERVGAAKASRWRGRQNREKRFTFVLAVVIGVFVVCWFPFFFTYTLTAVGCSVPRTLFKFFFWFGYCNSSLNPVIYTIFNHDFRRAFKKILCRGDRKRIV
The experiment in a line: Displacement of [3H]-rauwolscine from human recombinant adrenergic alpha-2A receptor expressed in CHO-K1 cells incubated for 60 mins by spectrophotometric analysis. The data set is classed as cell-based.

The nature of data set [13]: Displacement of [3H] idazoxan from imidazoline receptor 2 (unknown origin) by spectrophotometric analysis. On the set-up: species or system Homo sapiens.
Data set [14] in a line: Plasma protein binding in human assessed as unbound fraction by rapid equilibrium dialysis analysis. It counts as ADME, cell-free.
Data set [15] is described as follows: Metabolic stability in human liver mitochondrial fraction assessed as mean half life measured per million cells incubated upto 60 mins by LC-MS/MS analysis. It counts as ADME, mitochondria, Mitochondria.
Data set [16] is described as follows: Distribution coefficient, mean logD of compound at pH 7.4 in octanol and aqueous solution incubated for 95 mins under shaking condition by LC-MS/MS analysis. The data set is classed as physicochemical.
Data set [17] concerns the target T3, 5-hydroxytryptamine receptor 1B. The experiment in a line: Displacement of [3H] GR125743 from human recombinant 5-HT1B receptor expressed in […] cells assessed as inhibition constant incubated for 90 mins by spectrophotometric analysis. The data set is classed as cell-based.
The target of data set [18] is Neuronal acetylcholine receptor; alpha3/beta4 (Homo sapiens, UniProt P30926+P32297). The data set can be described thus: Displacement of [125I]-epibatidine from human recombinant nAChR alpha3beta4 receptor expressed in CHO-K1 cells assessed as inhibition constant incubated for 60 mins by spectrophotometric analysis. The data set is classed as cell-based.
Sequence of Neuronal acetylcholine receptor; alpha3/beta4 (P30926 whole entry): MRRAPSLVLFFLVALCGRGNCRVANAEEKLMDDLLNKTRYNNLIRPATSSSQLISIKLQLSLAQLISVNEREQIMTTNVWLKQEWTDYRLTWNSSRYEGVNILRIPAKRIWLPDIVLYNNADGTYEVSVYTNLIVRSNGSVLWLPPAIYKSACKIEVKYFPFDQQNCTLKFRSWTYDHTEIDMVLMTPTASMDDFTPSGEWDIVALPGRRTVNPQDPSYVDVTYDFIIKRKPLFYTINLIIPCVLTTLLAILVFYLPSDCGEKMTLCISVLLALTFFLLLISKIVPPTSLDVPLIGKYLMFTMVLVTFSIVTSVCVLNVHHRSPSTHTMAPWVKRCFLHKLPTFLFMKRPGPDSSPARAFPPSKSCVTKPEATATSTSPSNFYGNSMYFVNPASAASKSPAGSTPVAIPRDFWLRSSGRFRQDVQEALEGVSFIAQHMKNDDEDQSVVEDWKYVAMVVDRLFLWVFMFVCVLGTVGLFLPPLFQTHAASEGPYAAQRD
Sequence of Neuronal acetylcholine receptor; alpha3/beta4 (P32297 whole entry): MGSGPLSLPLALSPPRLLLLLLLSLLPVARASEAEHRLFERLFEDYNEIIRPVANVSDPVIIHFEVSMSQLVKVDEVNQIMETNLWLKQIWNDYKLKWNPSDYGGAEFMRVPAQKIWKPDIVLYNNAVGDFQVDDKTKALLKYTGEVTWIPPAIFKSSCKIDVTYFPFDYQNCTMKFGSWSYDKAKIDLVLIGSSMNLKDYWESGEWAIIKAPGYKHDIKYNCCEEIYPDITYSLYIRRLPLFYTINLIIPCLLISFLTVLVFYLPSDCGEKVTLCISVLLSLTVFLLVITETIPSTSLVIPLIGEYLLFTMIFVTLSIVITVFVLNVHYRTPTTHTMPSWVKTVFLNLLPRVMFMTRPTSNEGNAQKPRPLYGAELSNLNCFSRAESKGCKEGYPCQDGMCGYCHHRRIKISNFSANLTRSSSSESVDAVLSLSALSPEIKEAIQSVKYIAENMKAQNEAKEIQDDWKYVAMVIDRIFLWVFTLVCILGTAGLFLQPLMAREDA
For data set [19], the target named is 5-hydroxytryptamine receptor 6 (Homo sapiens, UniProt P50406). The data set can be described thus: Displacement of [3H] LSD from human recombinant 5-HT6 receptor expressed in human HeLa cells incubated for 120 mins by spectrophotometric analysis. The data set is classed as cell-based.
Sequence of 5-hydroxytryptamine receptor 6 (P50406 whole entry): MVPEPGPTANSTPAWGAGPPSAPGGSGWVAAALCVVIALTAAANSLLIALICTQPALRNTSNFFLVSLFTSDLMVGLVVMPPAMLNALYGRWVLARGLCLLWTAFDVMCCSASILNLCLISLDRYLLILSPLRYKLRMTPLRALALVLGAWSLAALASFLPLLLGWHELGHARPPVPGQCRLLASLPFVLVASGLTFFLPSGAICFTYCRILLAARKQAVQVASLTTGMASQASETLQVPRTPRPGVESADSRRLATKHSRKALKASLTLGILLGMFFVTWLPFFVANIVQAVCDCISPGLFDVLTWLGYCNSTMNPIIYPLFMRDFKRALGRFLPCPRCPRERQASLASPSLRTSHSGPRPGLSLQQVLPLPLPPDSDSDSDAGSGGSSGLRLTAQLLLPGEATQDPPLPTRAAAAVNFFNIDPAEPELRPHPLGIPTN

What is called IC50 is the concentration that gives 50% inhibition. By Ki is commonly meant a dissociation constant, usually derived from enzyme kinetics or from competition with a known ligand. In general, fraction unbound refers to free concentration divided by total concentration. What is called half-life is how long it takes for the measured level to halve. What is called logD is the decadic logarithm of the distribution of all forms, ionised or not, between an organic phase and buffer at a given pH. Higher therefore signals a more lipophilic compound. With `O=C(O)/C=C/C(=O)O.[2H]C([2H])(Cc1c[nH]c2ccccc12)N(C)C`, the IC50 in data set [1] was 1500 nM; in data set [6] it was 220 nM; in data set [7], 1990 nM; in [8], 990 nM; in [10] it was 3260 nM; in data set [11], 90 nM. The values for the 50% inhibitory concentration (IC50) in data set [12], in [13] and in data set [19] were 3030 nM, 2600 nM and 1080 nM, respectively. Also, the inhibitory constant (Ki) is 480 nM in [2]; 1730 nM in data set [3]; 1710 nM in [4]; 60 nM in data set [5]; 1600 nM in data set [9]; 1520 nM in [17]. In data set [18], the inhibition constant (Ki) came out at 3180 nM. Besides, the unbound share (fraction unbound) in data set [14] was determined as 0.7. Also, in data set [15], the half-life came to 85.1 min. This compound also displayed a logD at 1.583 h in data set [16] of 0.11.

`CN(C)CCc1c[nH]c2ccccc12.O=C(O)/C=C/C(=O)O`: the IC50 was 1180 nM in [1]; 150 nM in data set [6]; 2420 nM in [7]; 580 nM in data set [8]; 3070 nM in [10]; 120 nM in data set [11]. For the same compound, the concentration for half-maximal inhibition (IC50) stood at 2220 nM in data set [12], 1930 nM in [13] and 1210 nM in data set [19]. The Ki came out at 280 nM in data set [2]; 1290 nM in [3]; 1710 nM in data set [4]; 40 nM in [5]; 1510 nM in data set [9]; 1840 nM in [17]. The inhibition constant (Ki) in data set [18] stood at 3030 nM. Moreover, in [14], the unbound share (fraction unbound) was 0.68. The half-life in [15] is 8.3 min. The same compound came in with a log distribution coefficient (logD) at 1.583 h in data set [16] of 0.15.
